Source: patent US4904657A, “4H-quinolizin-4-one compounds exhibiting therapeutic activities” (Kissei Pharmaceutical Co., Ltd., priority 1987, dated 1990)

Experiments:
IgG = IgG produced in in vitro culture of spleen cells from DNP-As immunized mice (ELISA); type: cell-based, BALB/c mice; settings: Mus musculus, 96 h, spleen cell culture, 37° C., 4 days; for inhibition at 5 µg/mL: 5 μg/ml; for inhibition at 10 µg/mL: 10 μg/ml; for inhibition at 40 µg/mL: 40 μg/ml; for inhibition at 20 µg/mL: 20 μg/ml; for inhibition at 2.5 µg/mL: 2.5 μg/ml; for inhibition at 1 µg/mL: 1 μg/ml
Procedure: (§1) Determination of Igs Produced in In Vitro Culture
(§2) BALB/c mice were immunized intraperitoneally with 5 μg of DNP-As adsorbed on 4 mg aluminum hydroxide gel. Four weeks after the immunization, the spleens were excised from the mice and 5×10^7 spleen cells were transferred intravenously into the recipient mice which had been exposed to 600 rad of X-ray irradiation. Immediately after cell transfer, the recipients were then immunized intraperitoneally with 5 μg of DNP-As adsorbed on 4 mg aluminum hydroxide gel to induce adoptive secondary immune response. Further 4 weeks after the immunization of recipients, the spleens were excised from then and the spleen cell suspensions containing 5×10^6 cells/ml were cultured with or without a compound to be tested in 96-well micro-titer plates at 37° C. for 4 days. IgE and IgG secreted into the culture supernatant was each determined correspondingly by ELISA and the inhibitory effect was calculated according to the following equation. [formula]

IgE = IgE produced in in vitro culture of spleen cells from DNP-As immunized mice (ELISA); type: cell-based, BALB/c mice; settings: Mus musculus, 96 h, spleen cell culture, 37° C., 4 days; for inhibition at 5 µg/mL: 5 μg/ml; for inhibition at 10 µg/mL: 10 μg/ml; for inhibition at 40 µg/mL: 40 μg/ml; for inhibition at 20 µg/mL: 20 μg/ml; for inhibition at 2.5 µg/mL: 2.5 μg/ml; for inhibition at 1 µg/mL: 1 μg/ml
Procedure: as §1, §2

CCOC(=O)c1c(-c2ccccc2)c(C#N)c(=O)n2ccccc12 [Compound S-1, 3-Cyano-1-ethoxycarbonyl-2-phenyl-4H-quinolizin-4-one]
inhibition at 5 µg/mL (IgG): 1%
inhibition at 5 µg/mL (IgE): 47%

CCOC(=O)c1c(-c2ccc(Br)cc2)c(C#N)c(=O)n2ccccc12 [Compound S-3, 2-(4-Bromophenyl)-3-cyano-ethoxycarbonyl-4H-quinolizin-4-one]
inhibition at 49 µg/mL (IgG; 49 μg/ml): 15%
inhibition at 49 µg/mL (IgE; 49 μg/ml): 34%

CCOC(=O)c1c(-c2ccc(OC)cc2)c(C#N)c(=O)n2ccccc12 [Compound S-6, 3-Cyano-1-ethoxycarbonyl-2-(4-methoxyphenyl)-4-quinolizin-4-one]
inhibition at 10 µg/mL (IgG): 37%
inhibition at 10 µg/mL (IgE): 65%

CCOC(=O)c1c(-c2ccc3c(c2)OCO3)c(C#N)c(=O)n2ccccc12 [Compound S-8, 3-Cyano-1-ethoxycarbonyl-2-(3,4-methylenedioxyphenyl)-4H-quinolizin-4-one]
inhibition at 40 µg/mL (IgG): 5%
inhibition at 40 µg/mL (IgE): 51%

CCOC(=O)c1c(-c2ccc(Cl)cc2Cl)c(C#N)c(=O)n2ccccc12 [Compound S-9, 3-Cyano-2-(2,4-dichlorophenyl)-1-ethoxycarbonyl-4H-quinolizin-4-one]
inhibition at 5 µg/mL (IgG): 32%
inhibition at 5 µg/mL (IgE): 64%

CCCOC(=O)c1c(-c2ccccc2)c(C#N)c(=O)n2ccccc12 [Compound S-10, 3-Cyano-2-phenyl-1-propoxycarbonyl-4H-quinolizin-4-one]
inhibition at 10 µg/mL (IgG): 22%
inhibition at 10 µg/mL (IgE): 57%

COC(=O)c1c(-c2ccccc2)c(C#N)c(=O)n2ccccc12 [Compound S-11, 3-Cyano-1-methoxycarbonyl-2-phenyl-4H-quinolizin-4-one]
inhibition at 40 µg/mL (IgG): 19%
inhibition at 40 µg/mL (IgE): 46%

CCOC(=O)c1c(-c2ccc(F)cc2)c(C#N)c(=O)n2ccccc12 [Compound S-12, 3-Cyano-1-ethoxycarbonyl-2-(4-fluorophenyl)-4H-quinolizin-4-one]
inhibition at 20 µg/mL (IgG): 8%
inhibition at 20 µg/mL (IgE): 50%

CCOC(=O)c1c(-c2ccc(C)c(F)c2)c(C#N)c(=O)n2ccccc12 [Compound S-13, 3-Cyano-1-ethoxycarbonyl-2-(3-fluoro-4-methylphenyl)-4H-quinolizin-4-one]
inhibition at 40 µg/mL (IgG): 26%
inhibition at 40 µg/mL (IgE): 64%

CCOC(=O)c1c(-c2cc(OC)c(OC)c(OC)c2)c(C#N)c(=O)n2ccccc12 [Compound S-19, 3-Cyano-1-ethoxycarbonyl-2-(3,4,5-trimethoxyphenyl)-4H-quinolizin-4-one]
inhibition at 20 µg/mL (IgG): 8%
inhibition at 20 µg/mL (IgE): 48%

CCOC(=O)c1c(-c2ccc([N+](=O)[O-])cc2)c(C#N)c(=O)n2ccccc12 [Compound S-20, 3-Cyano-1-ethoxycarbonyl-2-(4-nitrophenyl)-4H-quinolizin-4-one]
inhibition at 10 µg/mL (IgG): 9%
inhibition at 10 µg/mL (IgE): 49%

CCOC(=O)c1c(-c2ccc(SC)cc2)c(C#N)c(=O)n2ccccc12 [Compound S-25, 3-Cyano-1-ethoxycarbonyl-2-(4-methylthiophenyl)-4H-quinolizin-4-one]
inhibition at 20 µg/mL (IgG): -4%
inhibition at 20 µg/mL (IgE): 61%

CCOC(=O)c1c(-c2cccc(OC)c2OC)c(C#N)c(=O)n2ccccc12 [Compound S-28, 3-Cyano-2-(2,3-dimethoxyphenyl)-1-ethoxycarbonyl-4H-quinolizin-4-one]
inhibition at 2.5 µg/mL (IgG): 14%
inhibition at 2.5 µg/mL (IgE): 64%

CCOC(=O)c1c(-c2cc(OC)cc(OC)c2)c(C#N)c(=O)n2ccccc12 [Compound S-29, 3-Cyano-2-(3,5-dimethoxyphenyl)-1-ethoxycarbonyl-4H-quinolizin-4-one]
inhibition at 40 µg/mL (IgG): 17%
inhibition at 40 µg/mL (IgE): 67%

CCOC(=O)c1c(-c2ccc(O)cc2)c(C#N)c(=O)n2ccccc12 [Compound S-30, 3-Cyano-1-ethoxycarbonyl-2-(4-hydroxyphenyl)-4H-quinolizin-4-one]
inhibition at 40 µg/mL (IgG): -20%
inhibition at 40 µg/mL (IgE): 43%

CCOC(=O)c1c(-c2ccc(O)c(O)c2)c(C#N)c(=O)n2ccccc12 [Compound S-31, 3-Cyano-2-(3,4-dihydroxyphenyl)-1-ethoxycarbonyl-4H-quinolizin-4-one]
inhibition at 20 µg/mL (IgG): -7%
inhibition at 20 µg/mL (IgE): 54%

CCOC(=O)c1c(-c2ccc(O)c(OC)c2)c(C#N)c(=O)n2ccccc12 [Compound S-32, 3-Cyano-1-ethoxycarbonyl-2-(4-hydroxy-3-methoxyphenyl)-4H-quinolizin-4-one]
inhibition at 20 µg/mL (IgG): -9%
inhibition at 20 µg/mL (IgE): 53%

CCOC(=O)c1c(-c2ccc(OC)c(O)c2)c(C#N)c(=O)n2ccccc12 [Compound S-33, 3-Cyano-1-ethoxycarbonyl-2-(3-hydroxy-4-methoxyphenyl)-4H-quinolizin-4-one]
inhibition at 40 µg/mL (IgG): 5%
inhibition at 40 µg/mL (IgE): 58%

CCOC(=O)c1c(N2CCCCC2)c(C#N)c(=O)n2ccccc12 [Compound S-35, 3-Cyano-1-ethoxycarbonyl-2-piperidino-4H-quinolizin-4-one]
inhibition at 5 µg/mL (IgG): 17%
inhibition at 5 µg/mL (IgE): 30%

N#Cc1c(N2CCCCC2)c(C(=O)OCCCc2ccccc2)c2ccccn2c1=O [Compound S-36, 3-Cyano-1-(3-phenylpropoxycarbonyl)-2-piperidino-4H-quinolizin-4-one]
inhibition at 5 µg/mL (IgG): -4%
inhibition at 5 µg/mL (IgE): 39%

N#Cc1c(N2CCCC2)c(C(=O)OCCCc2ccccc2)c2ccccn2c1=O [Compound S-38, 3-Cyano-1-(3-phenylpropoxycarbonyl)-2-(1-pyrrolidinyl)-4H-quinolizin-4-one]
inhibition at 1 µg/mL (IgG): 1%
inhibition at 1 µg/mL (IgE): 68%

CCOC(=O)c1c(N2CCN(CCO)CC2)c(C#N)c(=O)n2ccccc12 [Compound S-39, 3-Cyano-1-ethoxycarbonyl-2-[4-(2-hydroxyethyl)-piperazin-1-yl]-4H-quinolizin-4-one]
inhibition at 40 µg/mL (IgG): 17%
inhibition at 40 µg/mL (IgE): 63%

CCOC(=O)c1c(N2CCN(C=O)CC2)c(C#N)c(=O)n2ccccc12 [Compound S-40, 3-Cyano-1-ethoxycarbonyl-2-(4-formylpiperazin-1-yl)-4H-quinolizin-4-one]
inhibition at 40 µg/mL (IgG): 9%
inhibition at 40 µg/mL (IgE): 34%

N#Cc1c(N2CCN(C=O)CC2)c(C(=O)OCCCc2ccccc2)c2ccccn2c1=O [Compound S-41, 3-Cyano-2-(4-formylpiperazin-1-yl)-1-(3-phenylpropoxycarbonyl)-4H-quinolizin-4-one]
inhibition at 2.5 µg/mL (IgG): 9%
inhibition at 2.5 µg/mL (IgE): 75%

CCOC(=O)c1c(N2CCN(C)CC2)c(C#N)c(=O)n2ccccc12 [Compound S-42, 3-Cyano-1-ethoxycarbonyl-2-(4-methylpiperazin-1-yl)-4H-quinolizin-4-one]
inhibition at 40 µg/mL (IgG): 19%
inhibition at 40 µg/mL (IgE): 63%

CN1CCN(c2c(C#N)c(=O)n3ccccc3c2C(=O)OCCCc2ccccc2)CC1 [Compound S-43, 3-Cyano-2-(4-methylpiperazin-1-yl)-1-(3-phenylpropoxycarbonyl)-4H-quinolizin-4-one]
inhibition at 2.5 µg/mL (IgG): 1%
inhibition at 2.5 µg/mL (IgE): 65%

N#Cc1c(N2CCC(Cc3ccccc3)CC2)c(C(=O)OCCCc2ccccc2)c2ccccn2c1=O [Compound S-45, 2-(4-Benzylpiperidino)-3-cyano-1-(3-phenylpropoxycarbonyl)-4H-quinolizin-4-one]
inhibition at 1 µg/mL (IgG): 16%
inhibition at 1 µg/mL (IgE): 55%

N#Cc1c(N2CCOCC2)c(C(=O)OCCCc2ccccc2)c2ccccn2c1=O [Compound S-49, 3-Cyano-2-morpholino-1-(3-phenylpropoxycarbonyl)-4H-quinolizin-4-one]
inhibition at 2.5 µg/mL (IgG): 21%
inhibition at 2.5 µg/mL (IgE): 61%

N#Cc1c(N2CCN(CCO)CC2)c(C(=O)OCCCc2ccccc2)c2ccccn2c1=O [Compound S-54, 3-Cyano-2-[4-(2-hydroxyethyl)piperazin-1-yl]-1-(3-phenylpropoxycarbonyl)-4H-quinolizin-4-one]
inhibition at 5 µg/mL (IgG): 4%
inhibition at 5 µg/mL (IgE): 59%

CCOC(=O)c1c(N2CCN(CC(=O)N3CCOCC3)CC2)c(C#N)c(=O)n2ccccc12 [Compound S-55, 3-Cyano-1-ethoxycarbonyl-2-(4-morpholinocarbonylmethylpiperazin-1-yl)-4H-quinolizin-4-one]
inhibition at 40 µg/mL (IgG): -4%
inhibition at 40 µg/mL (IgE): 36%

N#Cc1c(N2CCN(CC(=O)N3CCOCC3)CC2)c(C(=O)OCCCc2ccccc2)c2ccccn2c1=O [Compound S-56, 3-Cyano-2-(4-morpholinocarbonylmethylpiperazin-1-yl)-1-(3-phenylpropoxycarbonyl)-4H-quinolizin-4-one]
inhibition at 2.5 µg/mL (IgG): 1%
inhibition at 2.5 µg/mL (IgE): 37%
